Row | melting point | Compound
1 | 99.3 to 99.7 °C | Nc1ccc([C@@H](O)CNC[C@@H]2CCc3cc(S(=O)(=O)Nc4ccc(-n5nnn(CCCC6CCCC6)c5=O)cc4)ccc3O2)cn1
2 | 94 to 95 °C | Nc1ccc([C@@H](O)CNC[C@H]2CCc3cc(NS(=O)(=O)c4ccc(-n5nnn(CCCC6CCCCC6)c5=O)cc4)ccc3O2)cn1
3 | 93 to 95 °C | O=c1n(CCCC2CCCC2)nnn1-c1ccc(NS(=O)(=O)c2ccc3c(c2)CCC(CNC[C@H](O)c2cccnc2)O3)cc1 (stereo partly shown) (hydrate or solvate)
4 | 110 to 115 °C (dec.) | O=c1n(CCCC2CCCC2)nnn1-c1ccc(NS(=O)(=O)c2ccc3c(c2)CCC(CN(C[C@H](O)c2cccc(Cl)c2)C[C@H](O)c2cccc(Cl)c2)O3)cc1 (stereo partly shown) (hydrate or solvate)
5 | 95 °C (dec.) | Nc1ccc([C@@H](O)CNCC2CCc3cc(S(=O)(=O)Nc4ccc(Cl)cc4)ccc3O2)cn1 (stereo in doubt)
6 | 90 to 92 °C | O=c1n(CCCC2CCCC2)ccn1-c1ccc(NS(=O)(=O)c2ccc3c(c2)CCC(CNC[C@H](O)c2cccnc2)O3)cc1 (stereo in doubt)
7 | 104 to 106 °C | CC(C)c1ccc(NS(=O)(=O)c2ccc3c(c2)CCC(CNC[C@H](O)c2cccnc2)O3)cc1 (stereo in doubt) (hydrate or solvate)
